Test results: paper PMC8540265, “Activity of New Synthetic (2-Chloroethylthio)-1,4-naphthoquinones in Prostate Cancer Cells” (Pharmaceuticals, 2021)
Read-outs that look alike come from different tables or passages of the source.

Legend:
[1] = system: 22Rv1 cells
[2] = system: 22Rv1 cells; type: cell-based, human
[3] = system: 22Rv1 cells; assay: MTT cytotoxicity test, 22Rv1 cells; type: cell-based, human
Description: (§1) A total of 6000 cells/well were seeded in 96-well plates, incubated overnight, and treated with the drugs in 100 μL/well of the corresponding fresh culture media for 48 h, as previously described. For combinational assays, the cells were pre-treated with the corresponding inhibitor for the indicated time and then co-treated with the tested compounds for 48 h. Then, 10 μL/well of MTT ((3-(4,5-dimethylthiazol-2-yl)-2,5-diphenyltetrazolium bromide) solution was added and the cell viability was measured as previously reported.

[4] = system: PNT2 cells; assay: MTT cytotoxicity test, PNT2 cells; type: cell-based, human
Description: as §1

[5] = system: PC-3 cells; type: cell-based, human
[6] = Homo sapiens, PNT2, 48 h, MTT, non-cancer prostate cells

How did the “effect on mitochondrial membrane potential (ΔΨm)” value [1] turn out when “2-[2-(3-chlorophenyl)hydrazinylyidene]propanedinitrile [CCCP]” was run?
Its value is “provoked mitochondrial membrane depolarization”.

With `COc1ccc(C[C@H]2NC[C@H](O)[C@H]2OC(C)=O)cc1` [Aniso, anisomycin] as the compound, how does the “effect of pre-treatment with pan-caspase inhibitor zVAD on induced apoptosis” value [2] read?
Its value is “Comparable effects”.

Which IC50 ([3]; Homo sapiens, 22Rv1, 48 h, MTT) does the source give for `COc1ccc2c(c1O)C(=O)C(O)=C(C)C2=O` [Compound 11, ancistroquinone B] here?
Its IC50 is > 100 µM.

And the IC50 [4, 6]?
Its IC50 is > 100 µM.

`CC1=C(O)C(=O)c2c(ccc(O)c2O)C1=O` [Compound 12, dioncoquinone B] was tested. Which IC50 ([3]; Homo sapiens, 22Rv1, 48 h, MTT) did it give?
The IC50 was 89.5 ± 24.9 µM.

What about the IC50 [4, 6] of the same compound?
Its IC50 is > 100 µM.

`COc1cc2c(c(OC)c1OC)C(=O)C(CSCCCl)=C(O)C2=O` [Compound 34, 3-((2-Chloroethylthio)methyl)-2-hydroxy-5,6,7-trimethoxy-1,4-naphthoquinone] was tested. Which IC50 [3] did it give?
The IC50 was > 100 µM.

And the IC50 [4]?
The IC50 was > 100 µM.

`O=C1C(O)=C(CSCCCl)C(=O)c2c(O)c(Cl)c(Cl)c(O)c21` [Compound 37, 6,7-Dichloro-2-((2-chloroethylthio)methyl)-3,5,8-trihydroxy-1,4-naphthoquinone] was tested. Which IC50 [3] did it give?
The IC50 was 48.6 ± 12.2 µM.

What about the “Selectivity Index [IC50(PNT2)/IC50(22Rv1)]” value [3] of the same compound?
The value was 0.58.

And the IC50 [4]?
Its IC50 is 28.2 ± 1.04 µM.

For `COc1cc(O)c2c(c1O)C(=O)C(O)=C(CSCCCl)C2=O` [Compound 38, 2-((2-Chloroethylthio)methyl)-3,5,8-trihydroxy-6-methoxy-1,4-naphthoquinone], which IC50 [3] is on record?
Its IC50 is > 100 µM.

And the IC50 [4]?
The IC50 was > 100 µM.

With `CC(=O)O[C@@H]1O[C@H](CSC2=CC(=O)c3c(O)c(C)c(C)c(O)c3C2=O)[C@@H](OC(C)=O)[C@H](OC(C)=O)[C@H]1OC(C)=O` [SAB-1] as the compound, how does the “increase in activity in PC-3 cells on introduction of the 2-chloroethylthio group” value [5] read?
Its value is 5 fold.
